Series [1] has as its system ZIKV Puerto Rico strain (PRVABC59). Description: ZIKV CPE MTS assay in human neuroblastoma (U251) cells. Particulars: Zika virus; for IC50: U-251, 120 h, read-out: ZIKV CPE MTS Assay IC50 (μM) H251. In kind it is cell-based, Zika virus. As to the method:
(§1) […] Cell cytopathic effect (CPE) MTS assay (CellTiter 96@k) AQueous One Solution Cell Proliferation Promega kit, Promega) was measured four (Vero) or five (U251 or Huh7) days after compound addition to determine the levels of replication inhibition.
For orientation: Tetrazolium dyes change colour on reduction, which living cells bring about.

Series [2] shares this test system. Nature of the series: ZIKV CPE MTS assay in Huh7 cells. It is filed as cell-based, Zika virus. The conditions noted are these: Zika virus, Huh-7, 120 h, read-out: ZIKV CPE MTS Assay IC50 (μM) Huh7. As to the method: as §1
Series [3] has the same test system. Nature of the series: ZIKV CPE MTS assay in Vero cells. In kind it is cell-based, Zika virus. The conditions noted are these: Zika virus; for IC50: 96 h, read-out: ZIKV CPE MTS Assay IC50 (μM) Vero; for inhibition at 20 µM / inhibition at 10 µM: read-out: ZIKV CPE MTS Assay percentage of inhibition at the concentration, Vero. The method, then:
as §1

Series [4] in a line: Cytotoxicity MTT assay in CEM cells. In kind it is cell-based. Particulars: human. An excerpt:
(§2) The toxicity of the compounds can be assessed in Vero, human PBM, CEM (human lymphoblastoid), and can be assessed in MT-2, and HepG2 cells, as described previously (see Schinazi R. F., Sommadossi J.-P., Saalmann V., Cannon D. L., Xie M.-Y., Hart G. C., Smith G. A. & Hahn E. F. Antimicrob. Agents Chemother. 1990, 34, 1061-67). Cycloheximide can be included as positive cytotoxic control, and untreated cells exposed to solvent can be included as negative controls. The cytotoxicity (IC50) can be obtained from the concentration-response curve using the median effective method described previously (see Chou T.-C. & Talalay P. Adv. Enzyme Regul. 1984, 22, 27-55; Belen'kii M. S. & Schinazi R. F. Antiviral Res. 1994, 25, 1-11).

Series [5] can be described thus: Cytotoxicity MTT assay in Vero cells. The conditions noted are these: African green monkey. In kind it is cell-based.
From the text: as §2

Series [6] in a line: Cytotoxicity MTT assay in PBM cells. In kind it is cell-based. The conditions noted are these: human. As to the method: v) Cellular Toxicity Assays: Nucleoside and nucleoside monophosphate prodrugs can be evaluated for their potential toxic effects on P4/R5 cells, MT-2 cells and uninfected PHA-stimulated human PBM cell. Log-phase P4/R5, MT-2, and PHA-stimulated human PBM cells can be seeded at 5×10^3 to 5×10^4 cells/well in 96-well cell culture plates containing 10-fold serial dilutions of the test drug. The cultures can be incubated for 2-4 days, after which 3-(4,5-dimethylthiazol-2-yl)-2,5-diphenyltetrazolium bromide (MTT) dye solution (Promega, Madison, WI) can be added to each well and incubated overnight. The reaction can be stopped with stop solubilization solution (Promega, Madison, WI) and plates can be read at a wavelength of 570 nm. The median 50% cytotoxic concentration (CC50) can be determined from the concentration-response curve using the median effect method.
as §2

The nature of series [7]: Cytotoxicity MTT assay in Huh7 cells. In kind it is cell-based. The conditions noted are these: human.
Series [8] in a line: Cytotoxicity MTT assay in HepG2 cells. Particulars: human. In kind it is cell-based.
From the text: as §2

Series [9] has as its system Zika virus. Description: Zika-infected Vero cell model, 4G2 antibody staining, FACS. The conditions noted are these: 72 h, MOI 0.1, Day 3, FACS, read-out: percent inhibition of Zika-infected Vero cells. In kind it is cell-based. As to the method: At 8 AM on Day 1, 10,000 cells/well were plated in a 96 well plate. At 2 PM, MOI 0.1 Zika virus was added. At 3 PM, virus inoculum was removed, and various concentrations of drug-containing medium was added, at multiple concentrations (duplicates of […]).
On Day 3, supernatants were harvested, and frozen for later RT-PCR confirmation. Cells were harvested, stained with 4G2 antibody, and intracellular virus was quantified with FACS. The EC50/EC90 were then calculated.
Concentrations of 10, 1, 0.1, 0.01 μM were assayed in duplicate for 10 total drugs. All cells were harvested, but the only cells stained with antibody were those contacted with the following compounds, in the listed concentrations:
All gates were established using uninfected cells as a control, and were maintained for all test conditions.

[10] abbreviates: Vero cells, MOI=0.01, four days.
[11] abbreviates: U-251, read-out: ZIKV CPE MTS Assay percentage of inhibition at the concentration, H251.

Turning to `C[C@@]1(O)C(O)[C@@H](CO)O[C@H]1n1cnc2c(N)ncnc21` (stereo partly drawn), the IC50 in series [1] (H251 cells, MOI=0.5, five days) is above 20 µM; in series [2] (Huh7 cells, MOI=0.5, five days), 3.4 µM; in series [3] (setting [10]) it was 20 µM. In [1] (U-251, H251 cells, at 20 μM, read-out: ZIKV CPE MTS Assay percentage of inhibition at the concentration, H251), the inhibition at 20 µM worked out at 24%.

For the compound `C[C@@]1(O)C(n2cnc3c(N)ncnc32)O[C@H](CO)[C@@H]1O` (stereo partly drawn), the IC50 was above 10 µM in series [1] (H251 cells, MOI=0.5, five days); 1.7 µM in [2] (Huh7 cells, MOI=0.5, five days); above 100 µM in series [4] (CEM lymphoblastoid cells); 13.1 µM in series [3] (setting [10]); above 100 µM in series [5]; above 100 µM in [6] (PHA-stimulated human PBM cells). Also, the inhibition at 10 µM in series [1] (U-251, H251 cells, at 10 μM, read-out: ZIKV CPE MTS Assay percentage of inhibition at the concentration, H251) amounted to 37%.

Regarding `CCOC(=O)[C@H](C)NP(=O)(OCC1C(n2cnc3c(N)cc(N)nc32)C[C@](C)(O)[C@@H]1O)Oc1ccccc1` (stereo partly drawn), the IC50 in series [1] was above 20 µM; in series [2], 2.9 µM; in series [7], above 100 µM; in [4], above 100 µM; in [3] (Vero), above 20 µM; in series [5], above 100 µM. This compound also registered an IC50 in series [6] (PBM cells) above 100 µM. Also, the values for the inhibition at 20 µM in [1] (setting [11]) and in series [3] (Vero) were 42% and 1%, respectively.

On to `CCOC(=O)[C@@H](C)NP(=O)(OC[C@H]1O[C@@H](n2ccc(NO)nc2=O)C(C)(O)C1O)Oc1ccccc1` (stereo partly drawn), for which the concentration for half-maximal inhibition (IC50) in series [1] is above 20 µM; in series [2], 5 µM; in [7], above 100 µM; in [4] it was above 100 µM; in [3] (Vero), above 20 µM; in [5] it was above 100 µM. In [6] (PBM cells), this compound came in with an IC50 above 100 µM. Besides, the inhibition at 20 µM in series [1] (setting [11]) was 27%; in [3] (Vero), 1%.

Regarding `CCOC(=O)[C@H](C)NP(=O)(OCC1O[C@@H](n2cnc3c(NOC)nc(N)nc32)[C@](C)(O)[C@@H]1O)Oc1ccccc1` (stereo partly drawn), the IC50 in [1] was above 20 µM; in series [2], 4.7 µM; in series [7] it was 94 µM; in series [4] it was 28 µM; in series [3] (Vero), above 20 µM; in [5] it was above 100 µM. This compound also yielded an IC50 in series [6] (PBM cells) above 100 µM. Further, the inhibition at 20 µM amounted to 43% in series [1] (setting [11]) and 19% in series [3] (Vero).

Take `CC(C)OC(=O)[C@H](C)NP(=O)(OC[C@H]1O[C@@H](n2ccc(NO)nc2=O)C(C)(O)C1O)Oc1ccccc1` (stereo partly drawn): the IC50 in series [1] was above 20 µM; in series [2] it was 0.8 µM; in series [7] it was above 100 µM; in series [4], above 100 µM; in series [3] (Vero), above 20 µM; in series [5], above 100 µM. The compound further displayed an IC50 in series [6] (PBM cells) above 100 µM. For the same compound, the inhibition at 20 µM was 3% in series [1] (setting [11]) and 1% in series [3] (Vero).

Turning to `CC(C)OC(=O)[C@H](C)NP(=O)(OCC1O[C@@H](n2cnc3c(N=[N+]=[N-])nc(N)nc32)[C@](C)(O)[C@@H]1O)Oc1ccccc1` (stereo partly drawn), the IC50 in series [1] is above 20 µM; in series [2] it was 11.5 µM; in series [7], above 100 µM; in series [4], above 100 µM; in series [3] (Vero), above 20 µM; in series [5], above 100 µM. The IC50 in series [6] (PBM cells) is above 100 µM. Besides, the figures for the inhibition at 20 µM in [1] (setting [11]) and in series [3] (Vero) were 20% and 1%, respectively.

As for `CC(C)OC(=O)[C@H](C)NP(=O)(OCC1O[C@@H](n2cnc3c(N)nc(N)nc32)[C@](C)(O)[C@@H]1O)Oc1ccccc1` (stereo partly drawn), the IC50 in series [1] was above 20 µM; in [2], 3.7 µM; in series [7], above 100 µM; in [4] it was above 100 µM; in series [3] (Vero), above 20 µM; in series [5], above 100 µM. Moreover, the IC50 in series [6] (PBM cells) is above 100 µM. Also, the inhibition at 20 µM in series [1] (setting [11]) is 25%; in series [3] (Vero) it was 1%.

Turning to `CC(C)OC(=O)[C@H](C)NP(=O)(OC[C@H]1O[C@@H](n2cc(F)c3c(N)ncnc32)[C@](C)(O)C1O)Oc1ccccc1` (stereo partly drawn), the IC50 is above 10 µM in [1]; 7.6 µM in [2]; 92.1 µM in [4]; above 20 µM in series [3] (Vero); above 100 µM in series [5]; 34.7 µM in series [6] (PBM cells). Further, the inhibition at 10 µM in [1] (setting [11]) is 1%.

Take `CC(C)OC(=O)[C@H](C)N[P@](=O)(OC[C@H]1O[C@@H](n2ccc(=O)[nH]c2=O)[C@](C)(F)[C@@H]1O)Oc1ccccc1`: the IC50 in series [1] was above 20 µM; in [2], 5.7 µM; in [7] it was 49.3 µM; in [4], above 100 µM; in series [3] (Vero) it was above 20 µM; in series [5], above 100 µM. For the same compound, in series [6] (PBM cells), the IC50 was above 100 µM. The figures for the inhibition at 20 µM in [1] (setting [11]) and in [3] (Vero) were 17% and 1%, respectively.

In the case of `CC(C)OC(=O)[C@H](C)NP(=O)(OC[C@H]1O[C@@H](n2ccc(=O)[nH]c2=O)[C@@](F)(Cl)C1O)Oc1ccccc1` (stereo partly drawn), the IC50 was above 100 µM in [4], below 10 µM in series [3] (Vero), above 100 µM in series [5] and above 100 µM in series [6] (PBM cells). Also, in [3] (Vero), the inhibition at 10 µM stood at 76%.

As for `CC(C)OC(=O)[C@H](C)NP(=O)(OC[C@H]1O[C@@H](n2ccc(N)nc2=O)C(F)(Cl)C1O)Oc1ccccc1` (stereo partly drawn), the IC50 is above 100 µM in series [4], below 10 µM in series [3] (Vero), above 100 µM in [5] and above 100 µM in series [6] (PBM cells). The inhibition at 10 µM in series [3] (Vero) was 80%.

Turning to `C[C@@H]1C[C@@H]([C@H](O)CC2CC(=O)NC(=O)C2)C(=O)[C@@H](C)C1`, the IC50 in series [8] was 0.3 µM; in series [4] it was 0.2 µM; in series [5] it was 0.2 µM; in [6] (PBM cells), 0.9 µM.

In the case of `CC1(O)C(O)[C@@H](CO)O[C@H]1n1cc(F)c2c(N)ncnc21` (stereo in doubt), in series [9], the inhibition at 0.01 µM worked out at 21%, the inhibition at 0.1 µM was found to be 59%, the inhibition at 1 µM was 73% and the inhibition at 10 µM amounted to 83%.

For `O=c1nc(NO)ccn1[C@@H]1O[C@H](CO)C(O)C1O` (stereo partly drawn) [drawing 85], in series [9], the inhibition at 0.01 µM was 0%, the inhibition at 0.1 µM stood at 5%, the inhibition at 1 µM came out at 35% and the inhibition at 10 µM stood at 57%.

In the case of `CC1(O)C(O)[C@@H](CO)O[C@H]1n1cc(F)c2c(N)ncnc21` (stereo partly drawn) [drawing 91], the IC50 was 6.1 µM in series [1] (H251 cells, MOI=0.5, five days); 1.7 µM in series [2] (Huh7 cells, MOI=0.5, five days); 17.5 µM in series [7]; 33.6 µM in [4] (CEM lymphoblastoid cells); 5.1 µM in [3] (setting [10]); above 100 µM in series [5]. This compound came in with an IC50 in series [6] (PHA-stimulated human PBM cells) of 83.7 µM.

For the compound `O=C(O)c1cc(/N=N/c2ccc(S(=O)(=O)Nc3ccccn3)cc2)ccc1O` [drawing 106], the IC50 in [8], in series [4] (CEM lymphoblastoid cells), in series [5] and in series [6] (PHA-stimulated human PBM cells) was above 100 µM each time.

Turning to `O=c1nc(NO)ccn1[C@@H]1O[C@H](CO)C(O)C1O` (stereo partly drawn) [drawing 107], the IC50 stood at 4.3 µM in series [1] (H251 cells, MOI=0.5, five days); 5.1 µM in series [2] (Huh7 cells, MOI=0.5, five days); 2.5 µM in series [4] (CEM lymphoblastoid cells); 3.2 µM in series [3] (setting [10]); 7.7 µM in series [5]; 30.6 µM in [6] (PHA-stimulated human PBM cells).

In general, IC50 refers to the point on the concentration scale where inhibition reaches its midpoint.

The values are drawn from US11963972B2, “Antiviral agents and nucleoside analogs for treatment of Zika virus” (priority 2016, dated 2024).
